Consider three molecules from ChEMBL document CHEMBL1201862, “PubChem BioAssay data set” (2004).

Calls of active or inactive are those of the source. A value given as a limit tells only on which side of the number the result lay.

One test addresses Large T antigen (Simian virus 40, UniProt P03070). The test is classed as functional, Betapolyomavirus macacae.
The target in test [1] is Induced myeloid leukemia cell differentiation protein Mcl-1 (Homo sapiens, UniProt Q07820). The test can be described thus: MCL1-BIM BH3 interaction inhibitors, dose response, biochemical, fluorescence polarization, BIM-BH3 peptide, 1536-well (AID 2217). (In general: Polarisation of emitted light reports the rotation of a fluorescent probe.)
Chain of Induced myeloid leukemia cell differentiation protein Mcl-1 (Q07820 whole entry): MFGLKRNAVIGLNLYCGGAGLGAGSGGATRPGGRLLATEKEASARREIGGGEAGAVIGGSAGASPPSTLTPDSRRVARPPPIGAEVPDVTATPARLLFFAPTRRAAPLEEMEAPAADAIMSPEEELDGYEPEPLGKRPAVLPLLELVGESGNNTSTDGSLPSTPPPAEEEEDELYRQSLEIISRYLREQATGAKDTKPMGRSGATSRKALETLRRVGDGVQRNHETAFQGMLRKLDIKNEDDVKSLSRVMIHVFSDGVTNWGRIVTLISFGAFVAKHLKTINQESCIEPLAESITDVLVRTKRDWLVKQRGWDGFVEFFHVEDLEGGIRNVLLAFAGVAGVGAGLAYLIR
In the next test the target is T1, Protein Tat (Human immunodeficiency virus type 1 group M subtype B (isolate HXB2)(HIV-1), UniProt P04608).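 Further: tat binding to TAR RNA read out by fluorescence polarization.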
T1 sequence (P04608 whole entry): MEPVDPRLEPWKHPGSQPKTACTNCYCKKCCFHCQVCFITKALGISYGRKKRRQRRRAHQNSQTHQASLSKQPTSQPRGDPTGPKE
The test is classed as functional.

The target of the next test is Bcl-2-like protein 1 (Homo sapiens, UniProt Q07817). As to the kind of experiment: BCL-XL inhibitors, dose response, selectivity assay for MCL1 inhibitor project, biochemical, fluorescence polarization, 1536-well (AID 2218).
Chain of Bcl-2-like protein 1 (Q07817 whole entry): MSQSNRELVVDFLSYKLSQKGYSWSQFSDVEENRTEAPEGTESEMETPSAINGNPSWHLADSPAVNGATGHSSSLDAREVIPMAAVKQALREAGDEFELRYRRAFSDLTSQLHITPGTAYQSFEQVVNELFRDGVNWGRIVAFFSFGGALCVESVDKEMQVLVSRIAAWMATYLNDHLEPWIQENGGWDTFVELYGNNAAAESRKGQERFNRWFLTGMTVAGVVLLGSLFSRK
The test system of test [2] is Streptococcus sp. 'group A'. As to the kind of experiment: growth inhibition of control SK(-) GAS strain, dose response, counter-screen for streptokinase expression inhibitor project, luminescence, kanamycin, BacTiterGlo, confirmation (AID 1900). The test is classed as functional, organism-based.
For a further test, the target named is Nonstructural protein 1 (Influenza A virus, UniProt Q194T2). The test is classed as functional, Influenza A virus (A/California/07/2009(H1N1)).
Chain of Nonstructural protein 1 (Q194T2 whole entry): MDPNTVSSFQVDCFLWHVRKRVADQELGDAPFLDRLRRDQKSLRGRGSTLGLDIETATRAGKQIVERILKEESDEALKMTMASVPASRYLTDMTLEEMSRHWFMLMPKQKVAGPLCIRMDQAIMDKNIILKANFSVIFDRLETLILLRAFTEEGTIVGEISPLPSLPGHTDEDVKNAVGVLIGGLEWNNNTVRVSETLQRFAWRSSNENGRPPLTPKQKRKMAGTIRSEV
In a further test the test system is Streptococcus. As to the kind of experiment: Group A Streptococcus viability loss, dose response, counter-screen for streptokinase expression inhibitor project, luminescence, BacTiterGlo (AID 1915).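 Further: potency for reduction of bacterial viability or growth.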 The test is classed as functional, organism-based. Background: A counterscreen serves to expose hits that act by an unwanted route or on another target.
Another test concerns the target Cytochrome P450 2C19 (Homo sapiens, UniProt P33261). The test can be described thus: Cytochrome panel assay with activity outcomes. Panel member name: p450-cyp2c19 Compounds with AC50 equal or less than 10 uM are considered active. The note with it: read-out: AC50. The test is classed as functional.
Test [3] in a line: inhibitors of SNCA 5'UTR-driven reporter translation, confirmation, H4 neuroglioma cells, luminescence (AID 1988). The test is classed as functional, cell-based.
Test [4] concerns the target T2, Mannose-6-phosphate isomerase (Homo sapiens, UniProt P34949).
T2 sequence (P34949 whole entry): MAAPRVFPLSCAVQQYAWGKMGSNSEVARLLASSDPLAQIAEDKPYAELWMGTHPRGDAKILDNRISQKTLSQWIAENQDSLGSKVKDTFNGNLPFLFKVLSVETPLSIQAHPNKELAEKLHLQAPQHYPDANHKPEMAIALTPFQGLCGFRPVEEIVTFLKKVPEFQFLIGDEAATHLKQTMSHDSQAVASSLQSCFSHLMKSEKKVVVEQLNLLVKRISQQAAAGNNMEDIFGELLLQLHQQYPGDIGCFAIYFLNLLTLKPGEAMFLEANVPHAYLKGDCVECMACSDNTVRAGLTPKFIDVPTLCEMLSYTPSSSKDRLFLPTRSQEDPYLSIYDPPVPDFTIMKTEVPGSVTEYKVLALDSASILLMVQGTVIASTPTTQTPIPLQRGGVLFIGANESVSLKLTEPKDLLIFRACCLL
As to the kind of experiment: human PMI inhibitors, high substrate, primary screen, biochemical, fluorescence intensity, high mannose 6-phosphate (AID 1220).

Test [5] in a line: growth suppression of PTEN-null colon cells, dose response, cell-based, HCT116 PTEN knockout (AID 1047).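 Further: HCT116 colon tumor cells with PTEN knocked out; cells exposed to compound for 60 hours before readout; potency for loss of cell viability measured by luminescence.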 The test is classed as functional.
The nature of test [6]: cytotoxicity in HPDE-C7 cells, cell-based, fluorescence, HTS (AID 430). The test is classed as functional. The conditions noted are these: Homo sapiens.
Test [7] addresses Heat shock protein HSP 90-alpha (Homo sapiens, UniProt P07900). The test is classed as functional, organism-based.
For test [8], the target named is T3, Short transient receptor potential channel 4 (Mus musculus, UniProt Q9QUQ5).
T3 sequence (Q9QUQ5 whole entry): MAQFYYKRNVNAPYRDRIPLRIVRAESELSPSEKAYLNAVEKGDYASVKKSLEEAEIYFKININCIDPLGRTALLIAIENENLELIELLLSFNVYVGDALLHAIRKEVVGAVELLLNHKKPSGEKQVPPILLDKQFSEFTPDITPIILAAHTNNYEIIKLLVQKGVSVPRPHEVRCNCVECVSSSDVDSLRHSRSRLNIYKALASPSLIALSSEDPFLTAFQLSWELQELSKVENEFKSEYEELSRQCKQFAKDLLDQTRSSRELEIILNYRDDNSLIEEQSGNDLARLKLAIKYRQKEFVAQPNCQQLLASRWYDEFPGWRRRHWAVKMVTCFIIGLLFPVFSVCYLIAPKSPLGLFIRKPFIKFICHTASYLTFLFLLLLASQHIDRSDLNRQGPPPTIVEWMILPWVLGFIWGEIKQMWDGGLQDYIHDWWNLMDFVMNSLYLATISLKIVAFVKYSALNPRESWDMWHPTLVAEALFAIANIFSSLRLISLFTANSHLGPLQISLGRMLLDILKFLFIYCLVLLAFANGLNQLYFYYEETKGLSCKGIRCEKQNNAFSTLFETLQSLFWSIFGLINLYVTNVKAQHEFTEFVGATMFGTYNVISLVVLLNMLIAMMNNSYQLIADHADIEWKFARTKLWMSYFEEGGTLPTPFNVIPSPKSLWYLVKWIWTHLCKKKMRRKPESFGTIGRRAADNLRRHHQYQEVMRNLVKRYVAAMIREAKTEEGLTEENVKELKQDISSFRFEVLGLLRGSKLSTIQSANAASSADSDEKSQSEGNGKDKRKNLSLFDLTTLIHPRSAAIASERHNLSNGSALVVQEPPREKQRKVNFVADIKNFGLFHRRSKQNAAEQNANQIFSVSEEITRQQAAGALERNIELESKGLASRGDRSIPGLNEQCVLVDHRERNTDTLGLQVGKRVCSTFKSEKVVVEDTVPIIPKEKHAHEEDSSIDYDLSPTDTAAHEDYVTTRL
As to the kind of experiment: mouse TRPC4 channel inhibitors, dose response, cell-based, HEK293 TRPC4/mu-opioid, Fluo-4 calcium (AID 434942).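 Further: potency of inhibitors blocking the TRPC4 calcium response.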 The test is classed as functional.

Test [9] in a line: growth suppression of beta-catenin-knockout colon cells, dose response, cell-based, HCT116, human colon tumor (AID 1045).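 Further: HCT116 colon tumor cells with beta catenin knocked out; cells exposed to compound for 60 hours.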 The test is classed as functional.
A short description of test [10]: Luminescence Cell-Based Dose Response HTS to Identify Inhibitors of 5'UTR Stem-Loop Driven Prion Protein mRNA Translation in H4 Neuroglioblastoma Cells. [Related pubchem assays: 1827 (Project Summary), 1813 (Primary HTS)]. The test is classed as functional.
Test [11] can be described thus: cytotoxicity in KRAS-transformed pancreatic duct cells, primary screen, cell-based, fluorescence, HTS (AID 431).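 Further: cell line used: HPDE-C7K.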 The note with it: Homo sapiens. The test is classed as functional.
The nature of test [12]: inhibitors of firefly luciferase expression or activity, dose response, H4 neuroglioma cells, luminescence (AID 1990). The test is classed as functional, cell-based.
The nature of test [13]: inhibitors of intracellular T. cruzi replication, confirmation, NIH3T3 host cells, beta-gal luminescence (AID 2044).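 Further: intracellular parasites grown in NIH/3T3 mouse fibroblasts as host cells; luminescent beta-galactosidase reporter signal from transgenic T. cruzi replicating inside host cells; inhibitors lower the luminescence signal.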 The test is classed as functional, cell-based.
The nature of test [14]: cytotoxicity toward NIH3T3 fibroblasts, dose response, counter-screen, cell-based, ATP luminescence, mouse fibroblasts (AID 2010).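 Further: cells exposed to compound for about 90 hours before reading.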 The test is classed as functional.

The IC50 is the concentration needed to halve the response being measured. Usually EC50 stands for the midpoint of the concentration-response curve. The term AC50 denotes the midpoint of the concentration-response curve, whichever way the signal moves.

Chain of Large T antigen (P03070 whole entry): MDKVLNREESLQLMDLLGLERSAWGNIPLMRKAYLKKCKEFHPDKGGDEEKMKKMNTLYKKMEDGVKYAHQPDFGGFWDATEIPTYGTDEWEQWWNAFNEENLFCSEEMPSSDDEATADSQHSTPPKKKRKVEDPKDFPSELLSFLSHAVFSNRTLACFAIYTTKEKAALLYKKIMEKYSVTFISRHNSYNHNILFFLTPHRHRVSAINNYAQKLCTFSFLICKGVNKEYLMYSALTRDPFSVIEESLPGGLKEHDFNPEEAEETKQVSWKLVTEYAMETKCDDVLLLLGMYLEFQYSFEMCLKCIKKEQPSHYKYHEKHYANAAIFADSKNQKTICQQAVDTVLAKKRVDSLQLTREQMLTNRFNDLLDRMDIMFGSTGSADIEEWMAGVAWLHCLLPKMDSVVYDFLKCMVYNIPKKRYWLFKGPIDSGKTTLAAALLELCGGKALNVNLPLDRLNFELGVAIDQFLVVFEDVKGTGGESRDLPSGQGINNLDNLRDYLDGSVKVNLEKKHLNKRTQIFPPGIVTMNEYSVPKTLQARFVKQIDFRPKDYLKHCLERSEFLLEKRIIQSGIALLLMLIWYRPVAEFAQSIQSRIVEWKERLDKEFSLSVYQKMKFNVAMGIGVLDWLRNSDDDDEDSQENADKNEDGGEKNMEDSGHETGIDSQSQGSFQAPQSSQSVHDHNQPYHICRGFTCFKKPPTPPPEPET
Chain of Cytochrome P450 2C19 (P33261 whole entry): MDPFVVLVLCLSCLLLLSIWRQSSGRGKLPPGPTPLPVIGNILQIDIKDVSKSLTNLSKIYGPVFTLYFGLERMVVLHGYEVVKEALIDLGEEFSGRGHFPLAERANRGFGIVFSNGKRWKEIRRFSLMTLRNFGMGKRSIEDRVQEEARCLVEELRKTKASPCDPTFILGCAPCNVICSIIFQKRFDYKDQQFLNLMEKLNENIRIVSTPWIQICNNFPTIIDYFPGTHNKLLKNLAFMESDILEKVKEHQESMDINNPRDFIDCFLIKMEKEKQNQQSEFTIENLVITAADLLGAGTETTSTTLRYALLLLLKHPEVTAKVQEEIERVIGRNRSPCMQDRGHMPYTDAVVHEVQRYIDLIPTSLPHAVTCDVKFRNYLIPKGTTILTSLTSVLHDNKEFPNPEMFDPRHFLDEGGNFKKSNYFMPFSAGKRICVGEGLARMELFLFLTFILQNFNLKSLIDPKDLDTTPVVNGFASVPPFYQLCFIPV

For the molecule `O=C1NC(=O)N(c2cccc(Cl)c2)C(=O)/C1=C\c1ccc(Sc2nc3ccccc3[nH]2)o1`, the IC50 was 66.2 µM (active) on Large T antigen, 8.64 µM (active) in [1], > 100 µM (active) at Protein Tat and > 12.1 µM (not active) against Bcl-2-like protein 1.
Take `Oc1c(CN2CCCCC2)cc(Br)c2cccnc12`: the EC50 is 3.42 µM (active) in test [2]; 10.7 µM (active) in the test on Streptococcus; 4.28 µM (active) in [3]; 1.95 µM (active) in [5]; 7.75 µM (active) in [6]; 4.22 µM (active) in test [8]. Moreover, the EC50 in [9] is 1.64 µM (active); in test [10], 1.63 µM (active); in test [11] it was 10.4 µM (active); in test [12], 5.98 µM (active); in [13] it was 1.16 µM (active); in [14], 6.38 µM (active). The IC50 on Nonstructural protein 1 was 3.55 µM (active); in [4], 15 µM (active). The AC50 on Cytochrome P450 2C19 is 39.8 µM (inconclusive); in test [7] it was 6.04 µM (active).
For `Cc1ccccc1OCC(=O)OCC(=O)Nc1ncc(Cl)c(C)c1Cl`, the IC50 was 15.7 µM (not active) in test [1] and 30.4 µM (not active) at Bcl-2-like protein 1.
